The text below walks through data of US11351151B2, “Compound having anticancer activity and preparation method and application” (3D Medicines (Beijing) Co., Ltd., priority 2016, dated 2022).

pIC50: −log10 of the molar value.

Common to all, as to test: Cell proliferation assay (Alamar Blue)
Type in all cases: cell-based
In general terms: Alamar Blue is a resazurin reagent that responds to reducing activity.

Test [1] has as its system SNU886. The following applies: SNU-886, 144 h; SNU886 liver cancer cell line; 6 days. The method, then: (§1) 1. Instruments and Materials • Thermo 311 CO2 incubator; Haier biosafety cabinet; Molecular Devices microplate reader; Xiangyi brand L530 desktop low speed centrifuge; Olympus IX51 inverted fluorescence microscope, DMEM, RPMI 1640, MEM, DMEM/F12 1:1 medium, Fetal bovine serum, 0.25% trypsin solution, phosphate buffer (Thermo Fisher Shanghai Co., Ltd.); sigma dimethyl sulfoxide (DMSO), resazurin; 54 commercial tumor cell lines (including 26 liver cancer cell lines). Experimental drugs: compounds 1-12 and active drug Linifanib; chemotherapeutic drug Doxorubicin (HY-15142; Shanghai Qianyuan Biomedical Technology Co., Ltd.).
(§2) 2. Experimental Methods • 2.1 Cultivation of different cell lines • 54 cell lines were cultured in a culture medium containing fetal bovine serum and placed in a 5% CO 2 incubator at 37° C. for incubation. The cells were all grown in an adherent state, and the growth was observed under an inverted microscope, and subculture was performed when the cell confluence rate reached 80%-90%. The proportion and quantity of passage were determined by experimental needs. The ratio of subculture of this cell line was generally 1:2^˜1:3. • 2.2 inhibition effect on the proliferation of different tumor cell lines • Cell test: 54 cell lines in logarithmic growth phase were inoculated in 96-well culture plates at 500^˜1×10^4/well (the optimal seeding density of each cell line was determined in pre-experiment), After incubating at 37° C. for 4 h in a 5% CO2 humidification incubator, added 10 μL of compounds 1-12 or Linifanib to each well, and tested 9 drug concentration gradients for each compound (diluted from the highest concentration of the test by 3.16 times). The solubility of each compound was different at a starting concentration of 30 or 100 μM, respectively. The QC reference compound Doxorubicin was added simultaneously to each cell line test, and the final drug concentrations were 10, 3.16, 1, 0.31, 0.1, 0.03, 0.01, 0.003, and 0.001 μM, respectively. In addition, a positive control group (100% inhibition) and a negative control group (0% inhibition) were set at the same time. The drug group was repeated for 2 wells per concentration, and the positive control group and the negative control group were repeated for 6 wells. After the culture was continued for 6 days in the incubator, AlamarBlue test operation was followed; • AlamarBlue test procedure: Incubated with 10 μL of AlamarBlue reagent per well for 1-4 h, shook for 1-2 min, MD microplate reader EX: 560 nm, EM: 590 nm wavelength to measure fluorescence, recorded the results, calculated the cell inhibition rate of the compound of the invention. Cell inhibition rate (%)=(A0% inhibition−A administration)/(A0% inhibition−A100% inhibition)×100%, and then using the method of nonlinear regression using Graph Pad Prism 5.0 or MATILAB software (usually using four parameters) to graph and obtain a drug dose response curve to obtain an IC50 value of the compound of the present invention acting on a cancer cell line.

The test system of test [2] is JHH7. To be noted: 144 h; JHH7 liver cancer cell line; 6 days. The method, then: as §1, §2
The test system of test [3] is HLE. The following applies: Homo sapiens, 144 h; HLE liver cancer cell line; 6 days. The method, then:
as §1, §2

In test [4] the test system is Hep3B2.1-7. The following applies: 144 h; Hep3B2.1-7 liver cancer cell line; 6 days. The method, then: as §1, §2
Test [5] concerns NCl-H1648. To be noted: 144 h; NCl-H1648 tumor cell line; 6 days. The method, then:
as §1, §2

In test [6] the test system is NCl-H2170. To be noted: 144 h; NCl-H2170 tumor cell line; 6 days. The method, then: as §1, §2
Test [7] deals with HUH7. To be noted: Homo sapiens, Huh-7, 144 h; HUH7 liver cancer cell line; 6 days. The method, then:
as §1, §2

For test [8], the system named is SNU423. The following applies: Homo sapiens, SNU-423, 144 h; SNU423 liver cancer cell line; 6 days. The method, then:
as §1, §2

Test [9] concerns MDA-MB-435S. The following applies: Homo sapiens, 144 h; MDA-MB-435S tumor cell line; 6 days. The method, then: as §1, §2
The subject of test [10] is K562. The following applies: Homo sapiens, 144 h; K562 tumor cell line; 6 days. The method, then:
as §1, §2

Test [11] deals with MDA-MB-231. To be noted: Homo sapiens, 144 h; MDA-MB-231 tumor cell line; 6 days. The method, then:
as §1, §2

The test system of test [12] is JHH5. The following applies: 144 h; JHH5 liver cancer cell line; 6 days. The method, then: as §1, §2
Test [13] has as its system DLD1. The following applies: Homo sapiens, DLD-1, 144 h; DLD1 tumor cell line; 6 days. The method, then: as §1, §2
Test [14] relates to AN3CA. To be noted: Homo sapiens, AN3-CA, 144 h; AN3CA (endometrial cells); 6 days. The method, then: as §1, §2
The subject of test [15] is T.T. The following applies: Homo sapiens, TT, 144 h; T.T tumor cell line; 6 days. The method, then: as §1, §2
In test [16] the test system is MFM-223. To be noted: Homo sapiens, 144 h; MFM-223 tumor cell line; 6 days. The method, then: as §1, §2
Test [17] deals with MG63. The following applies: Homo sapiens, MG-63, 144 h; MG63 tumor cell line; 6 days. The method, then:
as §1, §2

Test [18] concerns TE-6. To be noted: Homo sapiens, 144 h; TE-6 tumor cell line; 6 days. The method, then: as §1, §2
The test system of test [19] is SNU354. To be noted: Homo sapiens, SNU-354, 144 h; SNU354 liver cancer cell line; 6 days. The method, then:
as §1, §2

For test [20], the system named is SW620. The following applies: Homo sapiens, SW-620, 144 h; SW620 tumor cell line; 6 days. The method, then: as §1, §2
The subject of test [21] is LC-2-ad. The following applies: Homo sapiens, 144 h; LC-2-ad tumor cell line; 6 days. The method, then:
as §1, §2

Test [22] relates to CCRF-CEM. To be noted: Homo sapiens, 144 h; CCRF-CEM tumor cell line; 6 days. The method, then:
as §1, §2

In test [23] the test system is DU145. The following applies: Homo sapiens, DU-145, 144 h; DU145 tumor cell line; 6 days. The method, then:
as §1, §2

Turning to `Cc1ccc(F)c(NC(=O)Nc2ccc(-c3cccc4c3c(N)nn4C(=O)CCCCCNC(=O)C[C@H](N)C(=O)O)cc2)c1` [Compound 11], the pIC50 (commonly −log10 of the IC50, conventionally taken in molar units) is less than 4.00 in test [1]; 4.40 in test [2]; 4.26 in test [3]; 4.30 in test [4]; less than 4.00 in test [5]; 4.14 in test [6]. The pIC50 in [7] is 4.38; in test [8], less than 4.00; in test [9], 4.06; in [10], 4.48; in [11] it was 4.09; in test [12], 4.06. The pIC50 was 4.05 in [13]; 4.70 in [14]; less than 4.00 in [15]; 4.58 in [16]; 4.11 in [17]; less than 4.00 in test [18]. In addition, the pIC50 in test [19] was 4.20; in test [20], 4.22; in test [21], 4.56; in [22], 4.39; in test [23], 4.58.
In the case of `Cc1ccc(F)c(NC(=O)Nc2ccc(-c3cccc4c3c(N)nn4C(=O)CCCCCNC(=O)C[C@H](N)C(=O)N[C@@H](CCC(=O)O)C(=O)O)cc2)c1` [Compound 4], the pIC50 in test [1] is 4.02; in [2] it was 4.34; in [3], 4.32; in test [4] it was 4.16; in test [5], less than 4.00; in test [6] it was 4.08. The pIC50 in test [7] is 4.22; in [8], less than 4.00; in test [9] it was 4.01; in test [10], 4.35; in [11] it was 4.02; in [12], less than 4.00. In addition, the pIC50 in test [13] is less than 4.00; in test [14] it was 4.54; in test [15], less than 4.00; in [16], 4.42; in test [17], 4.02; in test [18] it was less than 4.00. Also, the pIC50 in [19] was 4.10; in test [20] it was 4.15; in test [21], 4.43; in test [22] it was 4.29; in [23], 4.42.
As for `Cc1ccc(F)c(NC(=O)Nc2ccc(-c3cccc4c3c(N)nn4C(=O)CCCCCCCCCCCNC(=O)C[C@H](N)C(=O)N[C@@H](CCC(=O)N[C@@H](CCC(=O)N[C@@H](CCC(=O)N[C@@H](CCC(=O)N[C@@H](CCC(=O)N[C@@H](CCC(=O)N[C@@H](CCC(=O)N[C@@H](CCC(=O)N[C@@H](CCC(=O)O)C(=O)O)C(=O)O)C(=O)O)C(=O)O)C(=O)O)C(=O)O)C(=O)O)C(=O)O)C(=O)O)cc2)c1` [Compound 9], the pIC50 in test [1] was less than 4.00; in test [2], 4.38; in [3], 4.27; in test [4] it was 4.28; in test [5] it was less than 4.00; in [6], 4.08. Moreover, the pIC50 is 4.52 in test [7]; less than 4.00 in [8]; less than 4.00 in [9]; less than 4.00 in test [10]; 4.09 in [11]; less than 4.00 in [12]. The pIC50 in [13] is less than 4.00; in [14], 5.07; in test [15], less than 4.00; in [16], 4.42; in test [17] it was less than 4.00; in test [18], less than 4.00. Besides, the pIC50 in test [19] was 4.17; in [20] it was 4.18; in test [21] it was 4.15; in test [22], 4.52; in test [23], 4.46.
Take `Cc1ccc(F)c(NC(=O)Nc2ccc(-c3cccc4[nH]nc(N)c34)cc2)c1` [Linifanib, reference compound]: the pIC50 in [1] is 5.35; in test [2], 5.74; in [3], 5.41; in test [4], 5.71; in test [5], 5.14; in test [6], 5.40. Further, the pIC50 was 5.78 in [7]; 5.03 in test [8]; 4.97 in test [9]; 4.96 in [10]; 5.39 in [11]; 5.00 in [12]. Also, the pIC50 in test [13] was 4.94; in [14], 6.72; in [15], 5.31; in test [16], 5.76; in [17], 5.75; in test [18], 5.39. For the same compound, the pIC50 in [19] was 5.34; in test [20], 5.56; in [21], 5.32; in test [22], 5.30; in test [23], 5.30.
On to `Cc1ccc(F)c(NC(=O)Nc2ccc(-c3cccc4c3c(N)nn4C(=O)CCCCCNC(=O)C[C@H](N)C(=O)N[C@@H](CCC(=O)N[C@@H](CCC(=O)N[C@@H](CCC(=O)N[C@@H](CCC(=O)O)C(=O)O)C(=O)O)C(=O)O)C(=O)O)cc2)c1` [Compound 5], for which the pIC50 is less than 4.00 in [1]; 4.24 in test [2]; 4.27 in [3]; 4.12 in test [4]; less than 4.00 in test [5]; less than 4.00 in test [6]. For the same compound, the pIC50 was 4.11 in test [7]; less than 4.00 in [8]; less than 4.00 in test [9]; 4.25 in test [10]; less than 4.00 in [11]; less than 4.00 in test [12]. In addition, the pIC50 in test [13] is less than 4.00; in [14] it was 4.34; in test [15], less than 4.00; in test [16] it was 4.32; in test [17], less than 4.00; in test [18], less than 4.00. Also, the pIC50 is less than 4.00 in [19]; less than 4.00 in [20]; 4.29 in test [21]; 4.15 in test [22]; 4.26 in test [23].
